Patent publication US20230270692A1, “COMPOUNDS FOR CHRONIC DISORDERS” (Pillai Universal LLC, priority 2020, published 2023)

Columns and labels:
HUMSCs = assay: Neuronal differentiation of human umbilical cord stem cells; assay type: cell-based
Procedure: After treatment at 72 h, the ratio of neuron-like cells reached high, with the cell bodies contracted and the protuberances lengthened further. The MSCs retained this morphology for the duration of the induction.

[1] = tested on: histone H3 acetylation, acetyl-α-tubulin; assay: Histone H3 / α-tubulin acetylation western blot in PANC cells; assay type: cell-based, Human
Procedure: (§1) Class I HDAC expression during pancreatic tumorigenesis was next examined. Briefly different concentration of Compound I were added and incubated for 24 h. […] Inhibition of Class I HDACs is associated with the upregulation of histone H3 acetylation and p21 mRNA and protein expression which have associated with the anti-proliferative activity. It has also been reported that HDAC6 functions as a α-tubulin deacetylase, modulating tubulin stability. Because α-tubulin and histone H3 are mutual downstream targets of HDACs, the relationship between protein expression and function of molecules was further examined. The effects of Compound I on histone H3 acetylation in PANC cells using western blot analysis was studied.

[2] = Reduction of hydroxychloroquine side effects; details: treatment of COVID-19
Excerpt: Coronavirus disease (COVID-19) is an infectious disease caused by virus SARS-CoV-2. The disease causes respiratory illness with symptoms such as a cough, fever, and in more severe cases, difficulty breathing. At present, one drug that may be effective in treating COVID-19 is hydroxychloroquine. However the drug hydroxychloroquine causes serious side effects including cardiovascular diseases, eye damage, mild or severe bronchospasm, and also affects mental health. The effect of Compound I of the present invention in reducing the side effects associated with hydroxychloroquine was studied according to methods known in the art.

[3] = tested on: panel of human normal cell lines; assay: MTT cytotoxicity of anticancer agents on normal cell lines, alone and with Compound I; details: combination treatment
Procedure: The cytotoxicity of anticancer agents was studied using a panel of human normal cell lines alone and with the combination of Compound I of the present invention. The cytotoxicity effect was determined by MTT assay. The following cell lines were used: Human epidermal keratinocytes cells (HaCaT), Human dermal fibroblast (HDF), Human bone marrow mesenchymal stem cells (HBMSCs), Human normal hepatocytes cells (THLE2), Human cardiac cells (AC-16), Human intestinal epithelial cells (HIEC-6), Human neuronal cells (SHSY-5Y), Human vascular Endothelial cells (HuVECs), Human lung epithelial cells (Calu-3), Human lung fibroblast (MRC 5).
Next, the cells were treated with anticancer agents in combination with Compound I of the present invention.

in vitro = details: African green monkey
[4] = tested on: Class I HDAC (HDAC1, HDAC2, HDAC3, HDAC8); assay: Class I HDAC expression/inhibition by western blotting in PANC cells; assay type: cell-based, Human
Procedure: as §1

[5] = tested on: cytokines and chemokines in the lungs; assay: Xenograft stage 4 metastasized breast cancer animal model, lung cytokines and pathology; assay type: in vivo
Excerpt: In a xenograft stage 4 metastasized breast cancer animal model, Compound I decreased production of cytokines (tumor necrosis factor alpha [TNF-α] and interleukin-6 [IL6]) and chemokines (CXCL10, CCL2, CCL3, CCL5), and were correlated with migration of Natural Killer cells and macrophages and observed in the lungs.

SARS-CoV-2 [6] = assay: Antiviral activity against SARS-CoV-2 in Calu-3 cells; assay type: cell-based
lung cancer stem cells = assay: Targeting lung cancer stem cells
Excerpt: Compound I is orally bioavailable, multi-tyrosine-kinase inhibitor with 120 target proteins that induces apoptosis and suppresses the invasiveness of lung cancer stem cells with no toxicity to normal cells. There were no signs of discomfort or any cardiovascular or respiratory disorders observed in animals after the administration throughout the study period.

SARS-CoV-2 [7] = assay: Inactivation of SARS-CoV-2 upon direct exposure; details: Severe acute respiratory syndrome coronavirus 2, read-out: 50% reduction (IC50), inactivation of SARS-CoV-2
SARS-CoV-2 [8] = assay type: in vivo; details: PO 250 mg B.I.D. over 7 days
cancer stem cells = assay: Cancer stem cell marker expression; assay type: cell-based
Excerpt: CSCs have significant impact on the tumor progression, drug resistance, recurrence and metastasis in different types of malignancies. Conventional cancer chemotherapy often fails as most anti-cancer drugs are not effective against drug-resistant CSCs. These surviving CSCs lead to relapse and metastasis. Most studies report that conventional therapeutic agents have limited access to the CSCs due to their hypoxic microenvironment and distant location from the vasculature that retards the efficacy of anti-CSC drugs (FIG. 14). However, the disclosed compounds may overcome this limitation and may penetrate into a deeper location and destroy CSCs. Accordingly, in embodiments, the present invention provides a method of inhibiting cancer stem cell survival and/or self-renewal comprising administering to a cancer stem cell an effective amount of a compound disclosed herein, e.g., Compound I (FIG. 13).
The compounds of the disclosure inhibited the expression of the genes in the follow cancers (FIG. 18): • Breast: CD44+CD24−/low Lineage−, ALDH-1high • Liver: CD133+, CD49f+, CD90+ • Colon: CD133+, CD44+, CD166+, EpCAM+, CD24+ • Pancreatic: CD133+, CD44+, EpCAM+, CD24+ • Leukemia: CD34+CD38− • Lungs: CD133+, ABCG2^High • Leukemia: CD34+, CD38−, HLA−, DR−, CD71−, CD90−, CD117−, CD123+
Reduction of stem cell surface marker expressions are seen within 1 hour and up to a maximum of […]. […]

Vero cells = details: any of the concentrations tested
[9] = tested on: xenograft nude mice models (triple-negative breast cancer, pancreatic, liver, colon cancer); assay: In vivo metastasis / stage IV tumor studies in xenograft nude mice versus standard drugs; details: mice, after 9 months since administration
SARS-CoV-2 [10] = assay: microbe, parasite or virus in culture; assay type: cell-based

COc1cc(/C=C/C(=O)/C=C/C=C/c2cc(OC)c(O)c(OC)c2)cc(OC)c1 [Compound I]
Neuronal cell type formation (HUMSCs): induced
acetyl-α-tubulin [1]: no acetyl-α-tubulin was detected
histone H3 acetylation ([1]; compared with control): stronger hyperacetylation
effect on hydroxychloroquine side effects [2]: assists in potentiating hydroxychloroquine by reducing the side effects
effect on toxicity induced by anticancer agents in normal cells [3]: reduces the toxic effect induced by anticancer agents
CC50 (in vitro): > 15 µM
protein expression of Class I HDAC ([4]; 24 h, western blotting, vs control p<0.05): decreased in a dose-dependent manner
inhibition of HDAC1, HDAC2, HDAC3 and HDAC8 ([4]; PANC cells): significantly inhibited
lung histopathology ([5]; by day 7): normal lung pathology without any pneumonitis observed
production of cytokines (TNF-α, IL6) and chemokines (CXCL10, CCL2, CCL3, CCL5) ([5]; in vivo): decreased
inhibition of intracellular SARS-CoV-2 RNA levels (SARS-CoV-2 [6]; Calu-3, 24 h p.i., RT-PCR): more than 95 % of control
IC50 (SARS-CoV-2 [6]; Severe acute respiratory syndrome coronavirus 2, Calu-3, read-out: average half-maximum effective concentration (IC50)): 1.5 µM
IC50 (SARS-CoV-2 [6]; Severe acute respiratory syndrome coronavirus 2, Calu-3, read-out: calculated IC50 (viral genomic RNA in supernatants, qRT-PCR)): 5 µM
IC50 (SARS-CoV-2 [6]; Severe acute respiratory syndrome coronavirus 2, Calu-3 cultures, 0.1-5 μM, read-out: average IC50 (reduction in replication)): 0.01 µM
IC50 (SARS-CoV-2 [6]; Severe acute respiratory syndrome coronavirus 2, calu-3 cell line, replication, read-out: IC 50): 10 µM
virus titer of treated cells (SARS-CoV-2 [6]; calu-3, 10 μM Compound I treated cells): ≤ 102 TCID50/ml
effect on lung cancer stem cells (lung cancer stem cells): induces apoptosis and inhibits metastasis without harming the normal cells
IC50 (SARS-CoV-2 [7]): 1000 nM
time to decrease of overactivated cytokine-secreting immune cells (SARS-CoV-2 [8]): 3 to 5 days
time to improved pulmonary function and symptoms (SARS-CoV-2 [8]): 4 to 5 days
cancer stem cell markers / gene expression (cancer stem cells): inhibition
Toxicity (Vero cells): no toxicity was observed
relapse of disease [9]: no relapse of disease
reduction in viral RNA in supernatant and cell pellets (SARS-CoV-2 [10]; 1 μM, at 48 h, compared to control samples): 99%
viral RNA in supernatant and cell pellets (SARS-CoV-2 [10]; 11 μM (figure legend)): reduction in viral RNA
IC50 (SARS-CoV-2 [10]; Severe acute respiratory syndrome coronavirus 2, Vero cells, MOI 0.1, read-out: IC50 (inhibition of virus yield)): 1000 nM
viral load measured by nucleoprotein expression (SARS-CoV-2 [10]; Vero cells, 48 h p.i., immunofluorescence): substantially reduced
reduction in cell-associated viral RNA (SARS-CoV-2 [10]; at 24 h): 99%
reduction in viral RNA present in the supernatant (SARS-CoV-2 [10]; at 24 h, compared to vehicle DMSO): 100%
viral material (SARS-CoV-2 [10]; by 36 h): effective loss of essentially all viral material
